The subject of experiment [1] is MV4-11. Put plainly: Upregulation of protein translation pathway related protein expression in human MV4-11 cells by GO analysis. It counts as functional, cell-based.
Experiment [2] relates to MV4-11. Put plainly: Induction of apoptosis in human MV4-11 cells assessed as early apoptotic cells at 300 nM incubated for 24 hrs by Annexin V-FITC/PI dual staining based flow cytometric analysis (reference value: 3.42 %). It counts as functional.

The source made the active and inactive calls. The rule behind the calls is not given here.

For the compound `O=C1CCC(N2Cc3c(NC(=O)CCCCCC(=O)N4CCC(C(=O)Nc5ncc(-c6ccccc6)s5)CC4)cccc3C2=O)C(=O)N1` (configuration not stated), the outcome in the experiment on MV4-11 [1] was Active. Besides, the Activity in the experiment with MV4-11 [2] is on record as 28.6%.

The values are drawn from ChEMBL document CHEMBL6177991, “Discovery of P11-2: A Potent First-in-Class MNK1-Targeting PROTAC Degrader for the Treatment of Cancer” (J Med Chem, 2025).
